The text below walks through data of PubChem BioAssay (NCI).

Experiment in all cases: NCI tumour cell line growth inhibition, 48 h
Assay [1] has as its system MDA-N.
Assay [2] has as its system DMS 273 small cell lung.
Assay [3] concerns HOP-18 NSCLC.
Assay [4] concerns DLD-1 colon.
For assay [5], the system named is P388/ADR leukemia.
For assay [6], the system named is P388 leukemia.
Assay [7] has as its system SN12K1 renal.
Assay [8] concerns XF 498 CNS.
In assay [9] the test system is RXF-631 renal.

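Following 48 hours of exposure in 96-well plates, responses at five concentrations were used to interpolate endpoints linearly. Definition used: TGI = concentration required for complete inhibition of growth.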

For `CCCCC[C@H]1CC=CC(=O)O1`, the TGI in assay [1] was 23 µM.
`NC(=O)OCc1c(O)c2c(c(O)c1COC(N)=O)C(=O)C=CC2=O`: the TGI in assay [2], in assay [3] and in assay [4] was above 100 µM throughout.
The compound `Cc1ccc(CCCC(=O)O)cc1C` registered a TGI in assay [1] above 100 µM.
Turning to `CSc1nc(NC2OC(CO)C(O)C(O)C2O)c(N)c(=O)n1C` (configuration not stated), the TGI in assay [5], in [6], in assay [2], in assay [7], in assay [3] and in assay [8] was above 100 µM throughout. The same compound registered a TGI in [4] above 100 µM.
In the case of `O=C1c2ccccc2-c2ccc(N(Cc3ccc(Br)cc3)Cc3ccc(Br)cc3)cc21`, in assay [1], the TGI is above 100 µM.
Same read-out and setting: in the case of `CCOC(=O)c1c(C)n(-c2ccc(C)cc2)c2c1cc(O)c1[nH]c3c(c12)CCCC3` it was 46.6 µM; in that of `O=C(c1no[n+]([O-])c1C(=O)c1csc2ccccc12)c1csc2ccccc12`, 21.6 µM.
Take `COc1ccc(C2C(Cl)C(=O)N2NC(=O)c2ccc(NC(C)=O)cc2)cc1OC` (configuration not stated): the TGI in assay [3] is above 100 µM.
As for `CNC1=C(C)C(=O)C2=C(C1=O)C(COC(N)=O)C1(OC)C3NC3CN21` (configuration not stated), the TGI in assay [1] turned out to be 5.65 µM.
Turning to `NC(N)=NCCCS(=O)(=O)Nc1ccc(Nc2c3ccccc3nc3cc([N+](=O)[O-])ccc23)cc1`, the TGI in assay [2] was 37.2 µM; in [1], 81.1 µM; in assay [3] it was 58.7 µM; in [8], 27.9 µM; in assay [9] it was above 100 µM; in assay [4], above 93.4 µM.
With `CC(C)=CCC/C(C)=C/CC/C(C)=C/C(O)c1ccccc1` (configuration not stated), the TGI in [9] stood at 34.1 µM; in [4], 34.4 µM.
With `CC(C)c1cccc(C(C)C)c1NC(=S)Nc1ccccc1`, the TGI in assay [2], in assay [3], in assay [9] and in [4] was above 100 µM each time.
Take `CC(=O)Nc1ccc2c(c1)C(=Nc1ccc(C(=O)O)cc1)c1ccccc1-2`: the TGI in [1] was above 100 µM.
In turn, `COC(=O)c1c(OC(C)=O)ccc2c1c1c(n2Cc2ccccc2)C(=O)c2ccccc2C1=O` had a TGI in assay [1] of 38.3 µM.
For the compound `CCN(CC)CCSc1nc2c([N+](=O)[O-])cccc2[nH]1`, the TGI in [2], in assay [8] and in [9] was above 100 µM throughout.
Regarding `N=C1SCCS1`, the TGI in assay [8] and in assay [4] was above 100 µM in each case.
`Nc1cccc2cc(S(=O)(=O)Nc3ccc(C(=O)O)cc3)ccc12`: the TGI in [1] is above 100 µM.
